The record followed here is patent US5356886A, “Antiviral phosphono-alken derivatives of purines” (Beecham Group p.l.c., priority 1990, dated 1994).

What all share (format): cell-based
Data set [1] can be described thus: Drug-induced cytotoxicity for the MRC-5 cell monolayers in the CMV test. The conditions noted are these: human, mrc-5 cells, read-out: concentration at which cytotoxicity was noted. Here is the method:
MRC-5 cells were grown to confluence in 24 well multi-dishes (well diameter=1.5 cm). The drained cell monolayers were each infected with approximately 50 infectious particles of cytomegalovirus (CMV; AD-169 strain) in 100 μl of phosphate-buffered saline. The virus was adsorbed for 1 hour at room temperature. After adsorption, residual inoculum was removed from each well and replaced with 1 ml of Eagle's MEM containing 10% heat inactivated foetal calf serum and 0.9% agarose (A37). Once the agarose had set, dilutions of the test compound, which had been prepared in Eagle's MEM (containing 10% heat-inactivated calf serum), were added, each well receiving 1 ml of liquid overlay. The test compound was diluted to give the following series of concentrations: 200, 60, 20, 6 . . . 0.06 μg/ml; final concentrations in the assay range, therefore, between 100 μg/ml and 0.03 μg/ml. The infected cultures were incubated at 37° C. in a humidified atmosphere containing 5% CO2 until plaques were clearly visible (about 12 days). The cultures are fixed in formol saline, the agarose overlays were carefully washed off, and then the cell monolayers were stained with carbol fuchsin. A stereo microscope was used to count plaques. […] In addition, the monolayers were examined for evidence of drug-induced cytotoxicity; the minimum concentration at which cytotoxicity occurs was recorded.

Another data set deals with Visna Virus. The data set can be described thus: CPE Inhibition Test (Established Monolayer) for Lentiviruses, visna virus (strain K184) in sheep choroid plexus cells. The conditions noted are these: Visna-maedi virus; visna virus strain K184, SCP cells; read-out: MIC (minimum concentration giving complete protection of the cell monolayers). How it is done:
3×10^4 sheep choroid plexus (SCP) cells were plated into individual wells of a 96 well microtitre plate in 100 μl of Eagle's MEM with Hanks' salts containing 10% heat inactivated foetal calf serum (FCS). When monolayers had become established (after 1 or 2 days growth) they were washed with 200 μl of maintenance medium (Eagle's MEM with Hanks' salts containing 0.5% FCS) and infected with 100 μl of visna virus (strain K184) in maintenance medium (30 TCID50/ml). Test samples were diluted with maintenance medium in further 96 well microtitre plates over the range 200-0.06 μg/ml by 3-fold dilution steps. 100 μl of the diluted samples was then transferred directly onto virus-infected monolayers (final concentration range therefore 100-0.03 μg/ml) and […] containing 5% CO2 until virus-induced CPE was maximal in the untreated virus-infected controls (usually 12-14 days). The plates were fixed with formal saline and stained with crystal violet. Virus-induced CPE was then scored microscopically and the minimum concentration of sample giving complete protection of the cell monolayers (MIC) determined.

The next data set relates to HIV. The data set can be described thus: HIV Suppression test, viral RNA (nucleic acid hybridisation) in peripheral human lymphocytes. The conditions noted are these: Human immunodeficiency virus 1, Lymphocyte, 96 h; Concn. 0.1 μM; read-out: % Inhibition on Day 4 after infection, Viral RNA. Here is the method: Peripheral human lymphocytes were prepared, cultivated, and harvested as above. Following the determination of the lymphocyte surface markers, unstimulated and mitogen stimulated cells were combined in a ratio of 1:2.
Under safety conditions these cells are infected with a standard preparation of HIV. The cells are sedimented by centrifugation. The supernatant was discarded and cells were resuspended in the HIV inoculum.
This inoculum is a liquid suspension of HIV-1 strain virus, pretested and adjusted to a titer that results in a synthesis of viral core protein p24 of >100 ng/ml at day four following infection of human lymphocytes according to the protocol.
3×10^8 lymphocytes were resuspended in 1 ml HIV inoculum and incubated at 37° C. for 60 minutes. Subsequently, the cells were washed two times with 50 ml of culture medium and resuspended in culture medium containing 10 units/ml of human recombinant interleukin-2 to yield a cell concentration of 2×10^6 cells/ml. 100 μof this cell suspension was added to each well of the microtiter plates containing the diluted solutions of the compounds. The microtiter plates were cultivated in an incubator with a humidified atmosphere and 5% CO2 at 37° C.
Accordingly, a fraction of lymphocytes was mock-infected with the same virus preparation that was heat inactivated (30 minutes at 56° C.) prior to infection.
On each of the days 2,3 and 4 post infection one of the microtiter plates which had been established in triplicate was prepared for determination of viral replication. Viral RNA is determined within the cells whereas the viral core protein p24 was detected in the supernatant of the lymphocyte culture.
Accordingly, 150 μl of supernatant were removed from each well and transferred to the well of a microtiter plate containing 50 μl/well of SDS (sodium dodecylsulfate, 0.08%). These plates were stored frozen. 50 μl of stop solution (1% SDS, 20 mM sodium acetate, pH 5.0, and 200 μg/ml heparin) were added to the cells remaining in each well. The plates were stored frozen.
The concentration of p24 synthesized by the HIV infected cells was determined by means of a sandwich ELISA, while the concentration of viral RNA was quantitated by nucleic acid hybridisation, using a ^32 P-labelled DNA probe for the gag/pol region of the viral genome. Absolute levels of viral antigen and RNA in drug treated samples were compared with untreated, virus-infected controls and the percentage inhibition calculated.

Usually inhibition stands for the percentage by which the read-out fell short of the control. As for `Nc1nc2c(ncn2OCC/C=C/P(=O)(O)O)c(=O)[nH]1` [Example 1, (E)-9-(4-phosphonobut-3-enyloxy)guanine], the MCC in data set [1] was determined as 10 µg/mL. For the same molecule, the MIC in the data set on Visna Virus was less than 3 ng/mL. Further, in the data set on HIV, the inhibition at 0.1 µM was determined as 93%.
